Experimental data: ChEMBL document CHEMBL1133028, “The synthesis and in vitro cytotoxic studies of novel oxa-spermidine derivatives and homologues” (2000)

How the values were obtained:
Format in all cases: functional
OVCAR-5 = assay: Compound was evaluated for the growth inhibition of OVCAR-5 ovarian cell lines; conditions: Homo sapiens
IGROV-1 = assay: Compound was evaluated for the growth inhibition of […] ovarian cell lines; conditions: Homo sapiens
Melanoma tumor cell line = assay: Compound was evaluated for the growth inhibition of cell cultures derived from human melanoma tumors
[1] = test system: Panel renal (Carcinoma cell lines); assay: Compound was evaluated for the growth inhibition of cell cultures derived from human renal cancer tumors
[2] = test system: Panel CNS (Carcinoma cell lines); assay: Compound was evaluated for the growth inhibition of cell cultures derived from human Cns cancer tumors
Tumor Cell line [3] = assay: Mean values over all human tumor cell lines were determined
[4] = test system: Panel colon (Carcinoma cell lines); assay: Compound was evaluated for the growth inhibition of cell cultures derived from human colon cancer tumors
Homo sapiens [5] = species on record: Homo sapiens; assay: Compound was evaluated for the growth inhibition of cell cultures derived from human prostate cancer tumors
[6] = test system: Lung cancer tumor cell line; assay: Compound was evaluated for the growth inhibition of cell cultures derived from human non small cell lung cancer tumors
[7] = test system: Panel breast (Carcinoma cell lines); assay: (§1) Compound was evaluated for the growth inhibition of cell cultures derived from human breast cancer tumors
leukaemia cell line = assay: Compound was evaluated for the growth inhibition of cell cultures derived from human leukemia tumors
Ovarian cancer cell line = assay: (§2) Compound was evaluated for the growth inhibition of cell cultures derived from human ovarian cancer tumors
Tumor Cell line [8] = assay: Compound was evaluated for the growth inhibition of a panel of human tumor cell lines
Homo sapiens [9] = species on record: Homo sapiens; assay: as §2
[10] = as §1
Tumor Cell line [11] = assay: Compound was evaluated for the growth inhibition against panel of human tumor cell lines

GI50 (OVCAR-5)	GI50 (Melanoma tumor cell line)	GI50 [1]	GI50 [2]	GI50 (Tumor Cell line [3])	GI50 [4]	GI50 [6]	GI50 [7]	GI50 (leukaemia cell line)	GI50 (Ovarian cancer cell line)	GI50 (Tumor Cell line [8])	GI50 (Tumor Cell line [11])	Compound	GI50 (IGROV-1)	GI50 (Homo sapiens [5])	GI50 (Homo sapiens [9])	GI50 [10]
52.5 µM	–	–	–	–	–	–	–	–	–	–	–	Cc1c(C)c(S(=O)(=O)N(CCCCCCN2C(=O)c3ccccc3C2=O)OCCCN2C(=O)c3ccccc3C2=O)c(C)c2c1OC(C)(C)CC2	3.27 µM	–	–	–
52.5 µM	–	–	–	–	–	–	–	–	–	–	–	Cc1c(C)c(S(=O)(=O)N(CCCCCN2C(=O)c3ccccc3C2=O)OCCCN2C(=O)c3ccccc3C2=O)c(C)c2c1OC(C)(C)CC2	3.27 µM	–	–	–
52.5 µM	–	–	–	–	–	–	–	–	–	–	–	Cc1c(C)c(S(=O)(=O)N(CCCCN2C(=O)c3ccccc3C2=O)OCCCN2C(=O)c3ccccc3C2=O)c(C)c2c1OC(C)(C)CC2	3.27 µM	–	–	–
52.5 µM	–	–	–	–	–	–	–	–	–	–	–	Cc1c(C)c(S(=O)(=O)N(CCCN2C(=O)c3ccccc3C2=O)OCCCN2C(=O)c3ccccc3C2=O)c(C)c2c1OC(C)(C)CC2	3.27 µM	–	–	–
–	18.2 µM	16.1 µM	16.9 µM	15.2 µM	16.2 µM	16.9 µM	20.2 µM	15.3 µM	17.9 µM	–	–	Cc1cc(C)c(S(=O)(=O)N(CCCCCN)OCCCN)c(C)c1	–	15.7 µM	–	–
–	–	–	–	–	–	–	–	–	–	> 100 µM	–	Cc1cc(C)c(S(=O)(=O)N(CCCN)OCCCN)c(C)c1	–	–	–	–
–	15.7 µM	17.5 µM	16.5 µM	18.3 µM	16.7 µM	22.4 µM	23 µM	19.5 µM	18 µM	–	–	Cc1cc(C)c(S(=O)(=O)N(CCCCCCN)OCCCN)c(C)c1	–	15.4 µM	–	–
–	18.1 µM	18.2 µM	18.1 µM	16.4 µM	13.3 µM	18.5 µM	17.8 µM	11.8 µM	–	–	–	Cc1cc(C)c(S(=O)(=O)N(CCCCN)OCCCN)c(C)c1	–	14.5 µM	17.2 µM	–
–	13.7 µM	14.3 µM	14.9 µM	12.5 µM	12.8 µM	13.5 µM	–	6.3 µM	–	–	–	Cc1c(C)c(S(=O)(=O)N(CCCCCON)OCCCN)c(C)c2c1OC(C)(C)CC2	–	10.6 µM	12.4 µM	13.8 µM
–	10.7 µM	11.3 µM	5.6 µM	8.5 µM	7.2 µM	6.3 µM	10.2 µM	4.1 µM	4.7 µM	–	–	Cc1c(C)c(S(=O)(=O)N(CCCCCCN)OCCCN)c(C)c2c1OC(C)(C)CC2	–	16.3 µM	–	–
–	–	–	–	–	–	–	–	–	–	–	> 100 µM	NCCCNOCCCN	–	–	–	–
–	19.1 µM	20.9 µM	18 µM	19.6 µM	20.3 µM	15.3 µM	28.4 µM	26.8 µM	13.5 µM	–	–	Cc1c(C)c(S(=O)(=O)N(CCCCN)OCCCN)c(C)c2c1OC(C)(C)CC2	–	14.5 µM	–	–
–	10.9 µM	16.5 µM	9.6 µM	11.2 µM	9.8 µM	11.5 µM	10 µM	3.9 µM	12.7 µM	–	–	Cc1c(C)c(S(=O)(=O)N(CCCCCN)OCCCN)c(C)c2c1OC(C)(C)CC2	–	16.1 µM	–	–
–	14.8 µM	14.7 µM	12.9 µM	14 µM	13.8 µM	14.2 µM	15.8 µM	13 µM	12.6 µM	–	–	Cc1c(C)c(S(=O)(=O)N(CCCN)OCCCN)c(C)c2c1OC(C)(C)CC2	–	14 µM	–	–
